The results in this text go back to patent US10759783B2, “Biaryl inhibitors of Bruton'S tyrosine kinase” (BIOGEN MA INC., priority 2013, dated 2020).

The target in the assay is T1, BTK enzyme (Homo sapiens, UniProt Q06187).
T1 construct: purchased Upstate 14-552
T1 sequence (Q06187 whole entry): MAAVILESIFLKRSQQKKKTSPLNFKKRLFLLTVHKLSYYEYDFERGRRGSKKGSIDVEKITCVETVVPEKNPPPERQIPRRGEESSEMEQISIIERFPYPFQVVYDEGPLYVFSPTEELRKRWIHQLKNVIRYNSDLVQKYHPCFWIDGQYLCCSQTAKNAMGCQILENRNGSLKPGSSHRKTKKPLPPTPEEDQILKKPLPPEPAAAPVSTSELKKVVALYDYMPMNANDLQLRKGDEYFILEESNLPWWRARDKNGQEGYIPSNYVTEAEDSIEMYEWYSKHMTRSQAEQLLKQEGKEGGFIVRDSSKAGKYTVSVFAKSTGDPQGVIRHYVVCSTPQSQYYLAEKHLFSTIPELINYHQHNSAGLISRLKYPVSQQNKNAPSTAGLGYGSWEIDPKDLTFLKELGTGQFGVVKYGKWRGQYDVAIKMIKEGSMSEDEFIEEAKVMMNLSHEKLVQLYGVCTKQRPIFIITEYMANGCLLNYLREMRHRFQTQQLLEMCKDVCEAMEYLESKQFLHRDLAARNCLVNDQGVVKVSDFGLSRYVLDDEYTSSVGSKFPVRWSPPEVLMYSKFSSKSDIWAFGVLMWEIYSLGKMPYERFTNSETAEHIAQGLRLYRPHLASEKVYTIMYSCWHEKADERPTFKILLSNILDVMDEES
Description: In vitro BTK kinase assay: BTK-POLYGAT-LS assay. The conditions noted are these: ATP 10 μM, read-out: IC50 (10uMATP). In kind it is biochemical. As to the method:
The purpose of the BTK in vitro assay is to determine compound potency against BTK through the measurement of IC50. […] For a typical assay, a 24 μL aliquot of a ATP/peptide master mix (final concentration; ATP 10 μM, polyGAT 100 nM) in kinase buffer (10 mM Tris-HCl pH 7.5, 10 mM MgCl2, 200 μM Na3PO4, 5 mM DTT, 0.01% Triton X-100, and 0.2 mg/ml casein) is added to each well. […] The assay is incubated for 30 minutes before being stopped with 28 μL of a 50 mM EDTA solution. […] The plate is covered and incubated for 45 minutes at room temperature.
Consider `Cc1cc(-c2ccnc(N)n2)ccc1CNC(=O)C1CC2CNCC2C1` (centres unmarked) [Example I-81, N-(4-(2-aminopyrimidin-4-yl)-2-methylbenzyl)octahydrocyclopenta[c]pyrrole-5-carboxamide], for which the IC50 (commonly the midpoint of a concentration-inhibition curve) is 1000 to 10000 nM. `Cc1cc(-c2ccnc(N)n2)ccc1C(C)NC(=O)c1cnc(C(F)(F)F)s1` (centres unmarked) [Example I-107, N-(1-(4-(2-aminopyrimidin-4-yl)-2-methylphenyl)ethyl)-2-(trifluoromethyl)thiazole-5-carboxamide]: the IC50 is 1000 to 10000 nM. The figure for `Cc1cc(-c2cc(Nc3cc4n(n3)CCCN(C)C4)ncn2)ccc1CNC(=O)c1cnc(C(C)(C)C)s1` [Example I-147, 2-(tert-butyl)-N-(2-methyl-4-(6-((5-methyl-5,6,7,8-tetrahydro-4H-pyrazolo[1,5-a][1,4]diazepin-2-yl)amino)pyrimidin-4-yl)benzyl)thiazole-5-carboxamide] is less than 10 nM; for `Cc1cc(-c2ccnc(Nc3cnn(C)c3)n2)ccc1CNC(=O)c1cnoc1C` [Example I-18, 5-methyl-N-(2-methyl-4-(2-((1-methyl-1H-pyrazol-4-yl)amino)pyrimidin-4-yl)benzyl)isoxazole-4-carboxamide] it is 100 to 999 nM.

In the case of `Cc1cc(-c2ccnc(Nc3cnn(C)c3)n2)ccc1CNC(=O)NC12CCC(CC1)CC2` [Example I-22, 1-(bicyclo[2.2.2]octan-1-yl)-3-(2-methyl-4-(2-((1-methyl-1H-pyrazol-4-yl)amino)pyrimidin-4-yl)benzyl)urea], the 50% inhibitory concentration (IC50) lay within 10 to 99 nM. The same measure for `Cc1cc(-c2ccnc(N)n2)ccc1CNC(=O)c1cnc(C(C)C)s1` [Example I-86, N-(4-(2-aminopyrimidin-4-yl)-2-methylbenzyl)-2-isopropylthiazole-5-carboxamide]: 10 to 99 nM; for `Cc1cc(-c2ccnc(Nc3cnn(C)c3)n2)cnc1CNC(=O)c1cc2c(s1)CCOC2` [Example I-101, N-((3-methyl-5-(2-((1-methyl-1H-pyrazol-4-yl)amino)pyrimidin-4-yl)pyridin-2-yl)methyl)-6,7-dihydro-4H-thieno[3,2-c]pyran-2-carboxamide]: 10 to 99 nM. The figure for `Cc1cc(-c2ccnc(N)n2)ccc1CNC(=O)c1cnc(C(F)(F)F)s1` [Example I-83, N-(4-(2-aminopyrimidin-4-yl)-2-methylbenzyl)-2-(trifluoromethyl)thiazole-5-carboxamide] is 100 to 999 nM; for `Cc1cc(-c2ccnc(N)n2)ccc1CNC(=O)c1cc2c(s1)CCS(=O)(=O)C2` [Example I-138, N-(4-(2-aminopyrimidin-4-yl)-2-methylbenzyl)-6,7-dihydro-4H-thieno[3,2-c]thiopyran-2-carboxamide 5,5-dioxide] it is 1000 to 10000 nM; for `Cc1cc(-c2ccnc(NCc3ccncc3)n2)ccc1CNC(=O)c1cnc(C(C)(C)C)s1` [Example I-32, 2-(tert-butyl)-N-(2-methyl-4-(2-((pyridin-4-ylmethyl)amino)pyrimidin-4-yl)benzyl)thiazole-5-carboxamide] it is 100 to 999 nM. As to `Cc1cc(-c2ccnc(N)n2)ccc1CNC(=O)c1cc2n(n1)CCCNC2` [Example I-72, N-(4-(2-aminopyrimidin-4-yl)-2-methylbenzyl)-5,6,7,8-tetrahydro-4H-pyrazolo[1,5-a][1,4]diazepine-2-carboxamide], the IC50 is 1000 to 10000 nM. Turning to `Cc1cc(-c2ccnc(N)n2)ccc1CNC(=O)c1ccc2c(c1)CCNC2` [Example I-77, N-(4-(2-aminopyrimidin-4-yl)-2-methylbenzyl)-1,2,3,4-tetrahydroisoquinoline-6-carboxamide], the IC50 lay in the range of 1000 to 10000 nM. The same measure for `Cc1cc(-c2ccnc(NC3CCN(C)CC3)n2)ccc1CNC(=O)c1cnc(C(C)(C)C)s1` [Example I-25, 2-(tert-butyl)-N-(2-methyl-4-(2-((1-methylpiperidin-4-yl)amino)pyrimidin-4-yl)benzyl)thiazole-5-carboxamide]: 1000 to 10000 nM; for `Cc1cc(-c2nc(N)ncc2F)ccc1CNC(=O)c1cnc(C(C)(C)C)s1` [Example I-110, N-(4-(2-amino-5-fluoropyrimidin-4-yl)-2-methylbenzyl)-2-(tert-butyl)thiazole-5-carboxamide]: 10 to 99 nM; for `Cc1cc(-c2ccnc(N[C@H](C)C3CCCCC3)n2)ccc1CNC(=O)c1cnc(C(C)(C)C)s1` [Example I-27, (R)-2-(tert-butyl)-N-(4-(2-((1-cyclohexylethyl)amino)pyrimidin-4-yl)-2-methylbenzyl)thiazole-5-carboxamide]: more than 10000 nM. Take `Cc1cc(-c2ccnc(N)n2)ccc1CNC(=O)c1cc2c(s1)CCOC2` [Example I-139, N-(4-(2-aminopyrimidin-4-yl)-2-methylbenzyl)-6,7-dihydro-4H-thieno[3,2-c]pyran-2-carboxamide]: the IC50 was 10 to 99 nM. With `Cc1cc(-c2ccnc(Nc3cnn(C)c3)n2)ccc1CNC(=O)c1cn2c(n1)CCCC2` [Example I-156, N-(2-Methyl-4-(2-((1-methyl-1H-pyrazol-4-yl)amino)pyrimidin-4-yl)benzyl)-5,6,7,8-tetrahydroimidazo[1,2-a]pyridine-2-carboxamide], the IC50 was in the range of 100 to 999 nM.

Turning to `Cc1cc(-c2ccnc(NC(C)c3ccncc3)n2)ccc1CNC(=O)c1cnc(C(C)(C)C)s1` (centres unmarked) [Example I-29, 2-(tert-butyl)-N-(2-methyl-4-(2-((1-(pyridin-4-yl)ethyl)amino)pyrimidin-4-yl)benzyl)thiazole-5-carboxamide], the IC50 fell in the range of 1000 to 10000 nM. Regarding `Cc1cc(-c2ccnc(Nc3cnn(C)c3)n2)ccc1CNC(=O)C1CCN(C)CC1` [Example I-16, 1-methyl-N-(2-methyl-4-(2-((1-methyl-1H-pyrazol-4-yl)amino)pyrimidin-4-yl)benzyl)piperidine-4-carboxamide], the half-maximal inhibitory concentration (IC50) was more than 10000 nM. For `Cc1cc(-c2ccnc(N)n2)ccc1CNC(=O)c1cnc(C2CCCO2)s1` (centres unmarked) [Example I-88, N-(4-(2-aminopyrimidin-4-yl)-2-methylbenzyl)-2-(tetrahydrofuran-2-yl)thiazole-5-carboxamide], the half-maximal inhibitory concentration (IC50) is 100 to 999 nM. Consider `Cc1cc(-c2ccnc(N)n2)ccc1CNC(=O)c1cc2c(s1)CCNC2` [Example I-140, N-(4-(2-aminopyrimidin-4-yl)-2-methylbenzyl)-4,5,6,7-tetrahydrothieno[3,2-c]pyridine-2-carboxamide], for which the half-inhibitory concentration (IC50) lay within 10 to 99 nM. Consider `CC(C)(C)c1ncc(C(=O)NC2CCCc3cc(-c4ccnc(N)n4)ccc32)s1` (centres unmarked) [Example I-136, N-(6-(2-aminopyrimidin-4-yl)-1,2,3,4-tetrahydronaphthalen-1-yl)-2-(tert-butyl)thiazole-5-carboxamide], for which the IC50 lay within 10 to 99 nM. In the case of `CN(Cc1cc(-c2ccnc(N)n2)ccc1CNC(=O)c1cc2c(s1)CCCC2)C(=O)OC(C)(C)C` [Example I-144, tert-butyl 5-(2-aminopyrimidin-4-yl)-2-((4,5,6,7-tetrahydrobenzo[b]thiophene-2-carboxamido)methyl)benzyl(methyl)carbamate], the half-maximal inhibitory concentration (IC50) is 10 to 99 nM. `Cc1cc(-c2ccnc(N)n2)ccc1CNC(=O)c1cc2c(s1)CCN(C)C2` [Example I-141, N-(4-(2-aminopyrimidin-4-yl)-2-methylbenzyl)-5-methyl-4,5,6,7-tetrahydrothieno[3,2-c]pyridine-2-carboxamide]: the IC50 lay within 100 to 999 nM. Take `Cc1cc(-c2nc(Nc3cnn(C)c3)ncc2C)ccc1CNC(=O)c1cnc(C(C)(C)C)s1` [Example I-112, 2-(tert-butyl)-N-(2-methyl-4-(5-methyl-2-((1-methyl-1H-pyrazol-4-yl)amino)pyrimidin-4-yl)benzyl)thiazole-5-carboxamide]: the IC50 is less than 10 nM. Turning to `COC(C)c1ncc(C(=O)NCc2ccc(-c3ccnc(N)n3)cc2C)s1` (centres unmarked) [Example I-87, N-(4-(2-aminopyrimidin-4-yl)-2-methylbenzyl)-2-(1-methoxyethyl)thiazole-5-carboxamide], the 50% inhibitory concentration (IC50) fell in the range of 100 to 999 nM. Consider `Cc1cc(-c2ccnc(Nc3cnn(C)c3)n2)ccc1CNC(=O)N1CC(OC(C)(C)C)C1` [Example I-152, 3-(tert-butoxy)-N-(2-methyl-4-(2-((1-methyl-1H-pyrazol-4-yl)amino)pyrimidin-4-yl)benzyl)azetidine-1-carboxamide], for which the IC50 was less than 10 nM. `Cc1cc(-c2ccnc(NCC3CCS(=O)(=O)CC3)n2)ccc1CNC(=O)c1cnc(C(C)(C)C)s1` [Example I-31, 2-(tert-butyl)-N-(4-(2-(((1,1-dioxidotetrahydro-2H-thiopyran-4-yl)methyl)amino)pyrimidin-4-yl)-2-methylbenzyl)thiazole-5-carboxamide]: the half-maximal inhibitory concentration (IC50) was 100 to 999 nM. On to `Cc1cc(-c2ccnc(N)n2)ccc1CNC(=O)c1cnc(C2CC2)s1` [Example I-85, N-(4-(2-aminopyrimidin-4-yl)-2-methylbenzyl)-2-cyclopropylthiazole-5-carboxamide], for which the half-inhibitory concentration (IC50) fell in the range of 10 to 99 nM. Turning to `Cc1cc(-c2ccnc(NC3CCS(=O)(=O)CC3)n2)ccc1CNC(=O)c1cnc(C(C)(C)C)s1` [Example I-30, 2-(tert-butyl)-N-(4-(2-((1,1-dioxidotetrahydro-2H-thiopyran-4-yl)amino)pyrimidin-4-yl)-2-methylbenzyl)thiazole-5-carboxamide], the IC50 fell in the range of 1000 to 10000 nM. For the compound `Cc1cc(-c2ccnc(Nc3cnn(C)c3)n2)ccc1CNC(=O)c1cccn1C` [Example I-158, 1-Methyl-N-(2-methyl-4-(2-((1-methyl-1H-pyrazol-4-yl)amino)pyrimidin-4-yl)benzyl)-1H-pyrrole-2-carboxamide], the IC50 fell in the range of 100 to 999 nM.

Consider `CCNc1nccc(-c2ccc(CNC(=O)c3cnc(C(C)(C)C)s3)c(C)c2)n1` [Example I-34, 2-(tert-butyl)-N-(4-(2-(ethylamino)pyrimidin-4-yl)-2-methylbenzyl)thiazole-5-carboxamide], for which the IC50 was in the range of 10 to 99 nM.
